The values that follow come from the OPERA property sets (Mansouri et al. 2018).

In brackets after ≈: the same amount, converted by molar mass.

`c1ccc2[nH]cnc2c1` gave a solubility (20 °C) of 17 mM (≈ 2010 µg/mL). With `c1ccc2cc3c(cc2c1)-c1cccc2cccc-3c12`, the solubility (25 °C) worked out at 3.17e-06 mM (≈ 0.0008 µg/mL). The same measure, in the same setting: under `c1ccc2c(c1)ccc1ncccc12` stands 0.439 mM (≈ 78.7 µg/mL); under `CCCCc1c2ccccc2cc2ccc3ccccc3c12`, 2.99e-05 mM (≈ 0.0085 µg/mL). In the case of `c1ccc2nccnc2c1`, under “25 °C”, the solubility came to 5070 mM (≈ 660000 µg/mL).

Turning to `CCc1c2ccccc2cc2c1ccc1ccccc12`, where the note is “27 °C”, the solubility was determined as 0.00016 mM (≈ 0.041 µg/mL). The molecule `Cc1c[nH]c2ccccc12` returned a solubility (25 °C) of 3.8 mM (≈ 498 µg/mL). Take `c1ccc2ccccc2c1`: the solubility (25 °C) is 0.242 mM (≈ 31 µg/mL). Same read-out and setting: under `c1ccc2cnccc2c1` stands 35 mM (≈ 4520 µg/mL); under `Cc1nc2ccccc2[nH]1`, 11 mM (≈ 1450 µg/mL). The same measure, in the same setting: under `Cc1cccc2c1c(C)cc1cc3ccccc3cc12` stands 1.06e-05 mM (≈ 0.00272 µg/mL); under `c1ccc2c(c1)-c1ccc3ccc4cccc5cc-2c1c3c45`, 6.88e-07 mM (≈ 0.00019 µg/mL).

As for `c1ccc2c(c1)c1cccc3ccc4cccc2c4c31`, the solubility (25 °C) came to 1.89e-05 mM (≈ 0.00477 µg/mL).

Molecule `c1ccc2[nH]ncc2c1` returned a solubility (20 °C) of 6.99 mM (≈ 826 µg/mL).

Regarding `Cc1c2ccccc2c2ccc3cccc4ccc1c2c43`, the solubility (25 °C) amounted to 3e-06 mM (≈ 0.000798 µg/mL).

The term solubility denotes the dissolved amount per volume that the medium holds. High values mean much dissolved substance, low ones little dissolved substance.
